Assay results: PubChem BioAssay AID1963441 (Molecular Pharmacology Branch, DTP, NCI, 2024)

Test system: NCI-H1876 complex spheroid growth, % test/control
Experiment: Anticancer human tumor NCI-H1876 cell line growth inhibition [Asc];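 also: compound exposure lasted 7 days starting three days after seeding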;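 as to viability, T/C: 100% = DMSO vehicle control wells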
Conditions: for IC50: curve of first compound; for viability, T/C: stronger effect = lower value
Procedure, shortened: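 Tumor cells were grown as multicellular spheroids with stromal HUVEC and mesenchymal stem cells and treated singly or in combination. Concentrations fell in half-log steps from the clinical Cmax, or from 10 microM where none was known.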

Cn1ncnc1[C@H]1c2n[nH]c(=O)c3cc(F)cc(c23)N[C@@H]1c1ccc(F)cc1 + Cc1c(S(C)(=O)=O)c(-c2cc(F)cc(N3CCN(c4ccc(NS(=O)(=O)c5ccc(NC(CCN6CCC(C(=O)OCCCP(=O)(O)O)CC6)CSc6ccccc6)c(S(=O)(=O)C(F)(F)F)c5)cc4)CC3)c2)c(-c2ccc(Cl)cc2)n1C(C)C
IC50 (second compound 0.0316 µM): > 100 nM | IC50 (second compound 0.1 µM): > 100 nM | IC50 (second compound 0.316 µM): > 100 nM | IC50 (second compound 1 µM): > 100 nM | IC50 (second compound 3.16 µM): > 100 nM | IC50 (second compound 10 µM): > 100 nM | viability, T/C (second compound 0.0316 µM, first compound 0.000316 µM): 89.8% | viability, T/C (second compound 0.0316 µM, first compound 0.001 µM): 82.8% | viability, T/C (second compound 0.0316 µM, first compound 0.00316 µM): 101% | viability, T/C (second compound 0.0316 µM, first compound 0.01 µM): 94.2% | viability, T/C (second compound 0.0316 µM, first compound 0.0316 µM): 106% | viability, T/C (second compound 0.0316 µM, first compound 0.1 µM): 81.6% | viability, T/C (second compound 0.1 µM, first compound 0.000316 µM): 100% | viability, T/C (second compound 0.1 µM, first compound 0.001 µM): 92.9% | viability, T/C (second compound 0.1 µM, first compound 0.00316 µM): 98.4% | viability, T/C (second compound 0.1 µM, first compound 0.01 µM): 111% | viability, T/C (second compound 0.1 µM, first compound 0.0316 µM): 96.7% | viability, T/C (second compound 0.1 µM, first compound 0.1 µM): 86.5% | viability, T/C (second compound 0.316 µM, first compound 0.000316 µM): 92% | viability, T/C (second compound 0.316 µM, first compound 0.001 µM): 101% | viability, T/C (second compound 0.316 µM, first compound 0.00316 µM): 95.5% | viability, T/C (second compound 0.316 µM, first compound 0.01 µM): 110% | viability, T/C (second compound 0.316 µM, first compound 0.0316 µM): 94.7% | viability, T/C (second compound 0.316 µM, first compound 0.1 µM): 74.3% | viability, T/C (second compound 1 µM, first compound 0.000316 µM): 110% | viability, T/C (second compound 1 µM, first compound 0.001 µM): 89.8% | viability, T/C (second compound 1 µM, first compound 0.00316 µM): 94.7% | viability, T/C (second compound 1 µM, first compound 0.01 µM): 94.7% | viability, T/C (second compound 1 µM, first compound 0.0316 µM): 91.7% | viability, T/C (second compound 1 µM, first compound 0.1 µM): 64% | viability, T/C (second compound 3.16 µM, first compound 0.000316 µM): 94.2% | viability, T/C (second compound 3.16 µM, first compound 0.001 µM): 95.7% | viability, T/C (second compound 3.16 µM, first compound 0.00316 µM): 94.1% | viability, T/C (second compound 3.16 µM, first compound 0.01 µM): 92.6% | viability, T/C (second compound 3.16 µM, first compound 0.0316 µM): 81% | viability, T/C (second compound 3.16 µM, first compound 0.1 µM): 53.7% | viability, T/C (second compound 10 µM, first compound 0.000316 µM): 100% | viability, T/C (second compound 10 µM, first compound 0.001 µM): 106% | viability, T/C (second compound 10 µM, first compound 0.00316 µM): 84.2% | viability, T/C (second compound 10 µM, first compound 0.01 µM): 95.9% | viability, T/C (second compound 10 µM, first compound 0.0316 µM): 80.4% | viability, T/C (second compound 10 µM, first compound 0.1 µM): 55.8%
